Experimental findings from patent publication US12583851B2, “Heteroaryl-substituted pyrazine derivatives as pesticides” (Elanco Animal Health GmbH, priority 2019, dated 2026) are described below.

As usually defined, the mortality is the percentage killed.

Common to all, as to type: in vivo
The subject of test [1] is green peach aphid (Myzus persicae). The experiment in a line: Myzus persicae spray test. The settings on record: foliar, 120 h, Chinese cabbage leaf disks, after 5 days. As to the method:
Myzus persicae—Spray Test
Solvent: 78.0 parts by weight acetone • 1.5 parts by weight dimethylformamide
(§1) Emulsifier: alkylarylpolyglycol ether
(§2) To produce a suitable preparation of active compound, 1 part by weight of active compound is mixed with the stated amount of solvents and is diluted with water, containing an emulsifier concentration of 1000 ppm, to the desired concentration. Further test concentrations are prepared by dilution with emulsifier containing water.
Chinese cabbage (Brassica pekinensis) leaf disks infected with all instars of the green peach aphid (Myzus persicae), are sprayed with a preparation of the active ingredient of the desired concentration.
After 5 days mortality in % is determined. 100% means all aphids have been killed and 0% means none of the aphids have been killed.

In test [2] the test system is Rhipicephalus (Boophilus) microplus larvae (strain Parkhurst, resistant against synthetic pyrethroids). The experiment in a line: Rhipicephalus (Boophilus) microplus in-vitro contact test, larval cattle tick. The settings on record: after 48 hours, read-out: efficacy (larvae dead or moribund); for pest or weed control at 1 µg/cm2, 100 g/ha: 1 μg/cm^2 (=100 g/ha); for pest or weed control at 5 µg/cm2, 500 g/ha: 5 μg/cm^2 (=500 g/ha). In outline: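 Acetone solutions were coated onto glass tube walls (900 ppm gives 5 μg/cm²); after drying, 20–50 pyrethroid-resistant Parkhurst larvae added and held at 27 °C, 85% RH. At 48 h, efficacy as % larvae dead or moribund, judged by loss of negative geotaxis.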

Test [3] has as its system larvae of the banded cucumber beetle (Diabrotica balteata). The experiment in a line: Diabrotica balteata spray test. The settings on record: 168 h, after 7 days, read-out: efficacy (seedling growth); for pest or weed control at 6.4 µg/disc, 20 g/ha: 20 g/ha (=6.4 μg/well); for pest or weed control at 32 µg/disc, 100 g/ha: 100 g/ha (=32 μg/well). The method in brief:
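Germinated wheat seedlings (5 per well, on agar) sprayed with compound in acetone/DMF with emulsifier-containing water, then infested with 10–20 Diabrotica balteata larvae. Efficacy (%) scored after 7 days from seedling growth: 100% = growth as untreated uninfested control, 0% = no seedlings grown.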

For test [4], the system named is fall armyworm larvae (Spodoptera frugiperda). Description: Spodoptera frugiperda spray test. The following applies: 168 h, maize leaf sections, after 7 days. The method in brief:
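Compound dissolved in acetone/dimethylformamide, diluted in water containing 1000 ppm alkylarylpolyglycol ether emulsifier and sprayed onto maize leaf sections. Dried sections were infested with larvae; % mortality scored after 7 days (100% = all caterpillars killed, 0% = none).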

The subject of test [5] is adult brown dog ticks (Rhipicephalus sanguineus). Description: Rhipicephalus sanguineus in-vitro contact test, adult brown dog ticks. The settings on record: 48 h, after 48 hours, read-out: efficacy (ticks dead or moribund); for pest or weed control at 5 µg/cm2, 500 g/ha: 5 μg/cm^2 (=500 g/ha); for pest or weed control at 1 µg/cm2, 100 g/ha: 1 μg/cm^2 (=100 g/ha). The method in brief:
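Acetone solution coated on glass tube inner walls (900 ppm, giving 5 μg/cm^2); after drying, 5–10 adult ticks added and kept 48 h at room temperature. Efficacy scored as percent dead or moribund, i.e., ticks unable to climb away on a 45–50 °C heating plate within 5 min.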

In test [6] the test system is larvae of the southern green stink bug (Nezara viridula). Description: Nezara viridula spray test. The settings on record: 96 h, 500 g/ha, barley plants, after 4 days. As to the method: Nezara viridula—Spray Test
(§3) Solvent: 78.0 parts by weight of acetone • • 1.5 parts by weight of dimethylformamide
as §1
To produce a suitable preparation of active compound, 1 part by weight of active compound is mixed with the stated amount of solvent, and the concentrate is diluted with water, containing an emulsifier concentration of 1000 ppm, to the desired concentration. Further test concentrations are prepared by dilution with emulsifier containing water.
Barley plants (Hordeum vulgare) infested with larvae of the southern green stink bug (Nezara viridula) are sprayed with a test solution containing the desired concentration of the active ingredient.
After 4 days mortality in % is determined. 100% means all the stink bugs have been killed; 0% means none of the stink bugs have been killed.

Test [7] relates to brown planthopper (Nilaparvata lugens). Description: Nilaparvata lugens spray test. The settings on record: 96 h, 500 g/ha, rice plants, after 4 days. The procedure: Nilaparvata lugens—Spray Test
as §3, §1, §2
Rice plants (Oryza sativa) are sprayed with a preparation of the active ingredient of the desired concentration and the plants are infested with the brown planthopper (Nilaparvata lugens).
After 4 days mortality in % is determined. 100% means all planthoppers have been killed and 0% means none of the planthoppers have been killed.

The subject of test [8] is adult cat fleas (Ctenocephalides felis). The experiment in a line: Ctenocephalides felis in-vitro contact test, adult cat flea. The following applies: after 48 hours, read-out: efficacy (fleas dead or moribund); for pest or weed control at 5 µg/cm2, 500 g/ha: 5 μg/cm^2 (=500 g/ha); for pest or weed control at 1 µg/cm2, 100 g/ha: 1 μg/cm^2 (=100 g/ha). In outline: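 Acetone solution coated onto glass tube walls; 900 ppm gives 5 μg/cm². Once dry, 5–10 adult fleas per tube held at room temperature for 48 h. Efficacy (%) is the share of fleas dead or moribund, i.e. unable to climb away on a 45–50° C heating plate.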

In test [1], `CCN(C)C(=O)c1cnc(-c2nccnc2[C@@H](C)NC(=O)c2cc(C(F)(F)F)cc(C(F)(F)F)c2)s1` [Example I-84, 2-(3-{(1R)-1-[3,5-bis(trifluoromethyl)benzamido]ethyl}pyrazin-2-yl)-N-ethyl-N-methyl-1,3-thiazole-5-carboxamide] gave a mortality at 100 g/ha of 90%.

Turning to `CC(NC(=O)c1cc(C(F)(F)F)cc(C(F)(F)F)c1)c1nccnc1-n1cc(C(=O)N(C)C)cn1` (racemic) [Example I-88, (rac)-1-(3-{1-[3,5-Bis(trifluoromethyl)benzamido]ethyl}pyrazin-2-yl)-N,N-dimethyl-1H-pyrazole-4-carboxamide], in test [2], the pest or weed control at 1 µg/cm2, 100 g/ha stood at 100% and the pest or weed control at 5 µg/cm2, 500 g/ha is 100%. For the same compound, in test [3], the pest or weed control at 6.4 µg/disc, 20 g/ha was 100% and the pest or weed control at 32 µg/disc, 100 g/ha was 100%. Moreover, the mortality at 100 g/ha in test [4] turned out to be 100%. Besides, in test [1], the mortality at 100 g/ha was found to be 90%.

Take `CC(NC(=O)c1cc(Cl)cc(S(C)(=O)=O)c1)c1nccnc1-n1cc(C(F)(F)F)cn1` (racemic) [Example I-93, (rac)-3-Chloro-5-(methanesulfonyl)-N-[1-{3-[4-(trifluoromethyl)-1H-pyrazol-1-yl]pyrazin-2-yl}ethyl]benzamide]: in test [2], the pest or weed control at 1 µg/cm2, 100 g/ha was 100% and the pest or weed control at 5 µg/cm2, 500 g/ha came out at 100%. For the same compound, in test [5], the pest or weed control at 5 µg/cm2, 500 g/ha stood at 80%. The same compound registered a mortality at 500 g/ha in test [6] of 100%. For the same compound, in test [3], the pest or weed control at 6.4 µg/disc, 20 g/ha was 100% and the pest or weed control at 32 µg/disc, 100 g/ha was found to be 100%. Besides, the mortality at 100 g/ha in test [4] came to 100%.

Turning to `CC(NC(=O)c1cc(C(F)(F)F)cc(C(F)(F)F)c1)c1nccnc1-n1cc(C(=O)N(C)CC2CC2)cn1` (racemic) [Example I-131, (rac)-1-(3-{1-[3,5-Bis(trifluoromethyl)benzamido]ethyl}pyrazin-2-yl)-N-(cyclopropylmethyl)-N-methyl-1H-pyrazole-4-carboxamide], in test [2], the pest or weed control at 1 µg/cm2, 100 g/ha was 100% and the pest or weed control at 5 µg/cm2, 500 g/ha was found to be 100%. In test [5], the pest or weed control at 1 µg/cm2, 100 g/ha came out at 80% and the pest or weed control at 5 µg/cm2, 500 g/ha is 80%. The compound also registered a mortality at 500 g/ha in test [6] of 100%. Besides, in test [3], the pest or weed control at 6.4 µg/disc, 20 g/ha was 100% and the pest or weed control at 32 µg/disc, 100 g/ha was 100%. For the same compound, the mortality at 100 g/ha in test [4] was 100%.

`CC(NC(=O)c1cc(C(F)(F)F)cc(C(F)(F)F)c1)c1nccnc1-c1ccc(C(=O)N(C)CC2CC2)cn1` (single isomer, unassigned) [Example I-164, 6-(3-{1-[3,5-Bis(trifluoromethyl)benzamido]ethyl}pyrazin-2-yl)-N-(cyclopropylmethyl)-N-methylpyridine-3-carboxamide]: the mortality at 100 g/ha was 100% in test [4] and 90% in test [1].

Take `CCN(CC)C(=O)c1ccc(-c2nccnc2C(C)NC(=O)c2cc(C(F)(F)F)cc(C(F)(F)F)c2)nc1` (single isomer, unassigned) [Example I-160, 6-(3-{1-[3,5-Bis(trifluoromethyl)benzamido]ethyl}pyrazin-2-yl)-N,N-diethylpyridine-3-carboxamide]: the mortality at 100 g/ha in test [4] worked out at 100%; in test [1] it was 90%.

Take `CC(NC(=O)c1cc(OC(F)(F)F)cc(S(C)(=O)=O)c1)c1nccnc1-c1ncc(C(=O)N(C)CC2CC2)s1` (racemic) [Example I-140, (rac)-N-(Cyclopropylmethyl)-2-(3-{1-[3-(methanesulfonyl)-5-(trifluoromethoxy)benzamido]ethyl}pyrazin-2-yl)-N-methyl-1,3-thiazole-5-carboxamide]: in test [7], the mortality at 500 g/ha was determined as 100%. In test [4], this compound showed a mortality at 100 g/ha of 100%. In test [8], the pest or weed control at 5 µg/cm2, 500 g/ha stood at 90%.

For `CC(NC(=O)c1cc(Cl)cc(OC(F)(F)F)c1)c1nccnc1-n1cc(C(=O)N(C)CC2CC2)cn1` (racemic) [Example I-133, (rac)-1-(3-{1-[3-Chloro-5-(trifluoromethoxy)benzamido]ethyl}pyrazin-2-yl)-N-(cyclopropylmethyl)-N-methyl-1H-pyrazole-4-carboxamide], in test [2], the pest or weed control at 1 µg/cm2, 100 g/ha was found to be 100% and the pest or weed control at 5 µg/cm2, 500 g/ha came out at 100%. Further, in test [5], the pest or weed control at 1 µg/cm2, 100 g/ha is 100% and the pest or weed control at 5 µg/cm2, 500 g/ha stood at 100%. Further, the mortality at 500 g/ha in test [6] turned out to be 100%. Besides, in test [3], the pest or weed control at 6.4 µg/disc, 20 g/ha was found to be 100% and the pest or weed control at 32 µg/disc, 100 g/ha is 100%. This compound registered a mortality at 100 g/ha in test [4] of 100%. In addition, in test [8], the pest or weed control at 1 µg/cm2, 100 g/ha was determined as 100% and the pest or weed control at 5 µg/cm2, 500 g/ha came out at 100%.

Turning to `CC(NC(=O)c1cc(C(F)(F)F)cc(C(F)(F)F)c1)c1nccnc1-c1ccc(C(=O)N2C[C@@H](C)O[C@@H](C)C2)cn1` (single isomer, unassigned) [Example I-166, N-[1-(3-{5-[(cis)-2,6-Dimethylmorpholine-4-carbonyl]pyridin-2-yl}pyrazin-2-yl)ethyl]-3,5-bis(trifluoromethyl)benzamide], the mortality at 100 g/ha in test [4] stood at 100%; in test [1], 90%.

As for `COc1ccc(-c2nccnc2C(C)NC(=O)c2cc(Cl)cc(OC(F)(F)F)c2)nc1` (centres unmarked) [Example I-28], in test [2], the pest or weed control at 1 µg/cm2, 100 g/ha stood at 90% and the pest or weed control at 5 µg/cm2, 500 g/ha was found to be 80%. For the same compound, in test [3], the pest or weed control at 6.4 µg/disc, 20 g/ha is 100% and the pest or weed control at 32 µg/disc, 100 g/ha turned out to be 80%. In test [1], this compound had a mortality at 100 g/ha of 90%.

For the compound `CC(NC(=O)c1cc(C(F)(F)F)cc(C(F)(F)F)c1)c1nccnc1-n1cc(C(=O)N(C)C2CC2)cn1` (racemic) [Example I-139, (rac)-1-(3-{1-[3,5-Bis(trifluoromethyl)benzamido]ethyl}pyrazin-2-yl)-N-cyclopropyl-N-methyl-1H-pyrazole-4-carboxamide], in test [2], the pest or weed control at 1 µg/cm2, 100 g/ha was 100% and the pest or weed control at 5 µg/cm2, 500 g/ha is 100%. Further, in test [6], the mortality at 500 g/ha stood at 100%. Besides, the pest or weed control at 32 µg/disc, 100 g/ha in test [3] was 80%. Further, the mortality at 100 g/ha in test [4] stood at 100%.

For `CC(NC(=O)c1cc(C(F)(F)F)cc(C(F)(F)F)c1)c1nccnc1-c1ccc(C(=O)N(C)C)cn1` (racemic) [Example I-38, (rac)-6-(3-{1-[3,5-Bis(trifluoromethyl)benzamido]ethyl}pyrazin-2-yl)-N,N-dimethylpyridine-3-carboxamide], the pest or weed control at 1 µg/cm2, 100 g/ha in test [2] came out at 100%; in test [8] it was 90%. Further, the pest or weed control at 5 µg/cm2, 500 g/ha in test [2] was 100%. For the same compound, the mortality at 100 g/ha in test [4] is 100%; in test [1] it was 90%.
